The values below are quoted from earlier work in US9636300B2, “Racecadotril lipid compositions” (JOHNSON & JOHNSON CONSUMER INC., priority 2013, dated 2017).

SMILES strings stand for the structures.

The conditions of the series: room temperature conditions.

Turning to `CC(=O)SCC(Cc1ccccc1)C(=O)NCC(=O)OCc1ccccc1` (stereo not shown) [Racecadotril], the water solubility result is “about 10 micrograms/ml”.
